Measured values published in article PMC4538536, “In Silico-Based High-Throughput Screen for Discovery of Novel Combinations for Tuberculosis Treatment” (Antimicrobial Agents and Chemotherapy, 2015).
≈ marks a conversion by molar mass, not a printed value. Read-outs that look alike come from different tables or passages of the source.

Experiments:
[1] = tested on: M. tuberculosis H37Rv; test: In vitro bactericidal-effect analysis (CFU enumeration of checkerboard wells); assay type: cell-based, Mycobacterium tuberculosis; conditions: single drug at its MIC (FIC of 1); positive = reduction in CFU
Protocol: For determining the extent of the bactericidal effect, sample wells which remained blue in the resazurin microtiter assay (REMA) and whose ΣFICs were within the synergistic-to-additive range (<0.7 for doublets and <1.5 for triplets) were plated on Middlebrook 7H10 agar medium and incubated at 37°C for 21 to 28 days, following which bacterial colonies were enumerated to obtain the net reduction in CFU in comparison to the counts for the untreated controls at the start of drug testing, as well as to that achieved when M. tuberculosis was exposed to each drug alone.

[2] = tested on: M. tuberculosis H37Rv; test: MIC determination, resazurin-based microplate assay; assay type: cell-based, Mycobacterium tuberculosis; conditions: single drug
[3] = In vivo pharmacokinetics in infected mice (plasma, LC-MS/MS); design: species or system BALB/c mice; conditions: BALB/c, mouse, plasma, po, steady state, infected mice
Protocol: The drugs were formulated in 0.5% hydroxypropyl methyl cellulose (HPMC)–0.1% Tween 80 suspensions as 3- or 4-drug combinations. Formulations were prepared by weighing and adding each compound to the bottle, according to the design. Formulation vehicle was added, and the suspension was stirred overnight. Only uniform suspensions were used, while those that precipitated were abandoned. Formulations were prepared every week, and compound stability was estimated at the end of the week. Pharmacokinetics (PK) analysis was performed on infected mice on the 20th day of dosing. Blood samples were collected from each mouse at 0.5, 2, 4, 6, and 24 h after compound administration. Blood samples of about 30 μl were collected from mice in all groups by serial sampling via the saphenous vein into Microvette CB300 tubes (Starstedt, Germany) coated with EDTA, and plasma (10 μl) was separated following centrifugation. Plasma samples were stored at –20°C until analysis using liquid chromatography-tandem mass spectrometry (LC-MS/MS).
A 1-mg/ml stock solution of each compound was prepared in dimethyl sulfoxide (DMSO) for all of the analytes except PZA and LZD, for which the stock solution was 10 mg/ml in DMSO, and RIF, for which the stock solution was prepared in 50% acetonitrile in water. Three different sets of calibration standard (CS) combinations were prepared by 2-fold dilution of the stock solutions. CS set 1 contained analytes CLO, BDQ, PA824, PZA, and SQ109, CS set 2 contained analytes BTZ043, MXF, THI, EMB, and PZA, and CS set 3 contained LZD, INH, RIF, and PZA. A 16-point calibration curve was utilized for all analytes, and the standard curves ranged from 0.0005 to 20 μg/ml except for PZA and LZD, for which the standard curve range was 0.006 to 200 μg/ml. Plasma samples were precipitated by adding chilled acetonitrile (1:10, vol/vol) containing carbamazepine as an internal standard (10 ng/ml). Samples were vortexed and then centrifuged at 4,000 rpm for 30 min at 10°C. The resulting supernatant was mixed with the mobile phase (50% acetonitrile in water with 0.1% formic acid). Five microliters of the sample was injected on to a liquid chromatographic system (Acquity ultraperformance liquid chromatography [UPLC] system, Waters, Milford, MA) coupled to a triple-quadrupole mass spectrometer (Xevo TQ-S; Waters, Milford, MA). Samples were separated on an LC column (ACE 3 C18, 50 by 4.6 mm, 3 μm particle size; Advanced Chromatography Technologies, Aberdeen, Scotland) by isocratic elution with 40 parts of 20 mM ammonium formate containing 0.1% (vol/vol) formic acid and 60 parts of acetonitrile at a flow rate of 0.5 ml/min with a run time of 4 min. Samples were acquired in positive ion mode and detected by multiple reaction monitoring (MRM). The concentrations of the analyte were determined from a standard curve obtained by plotting known concentrations of the analyte against peak area ratios (analyte/internal standard peak response).
PK analyses of the plasma concentration-time relationships were performed with Phoenix software (version 6.2; Pharsight, USA). A noncompartmental analysis program, model 200, was used to calculate PK parameters. The maximum concentration of drug in plasma (Cmax), time to Cmax (Tmax), elimination half-life (t1/2), and area under the concentration-time curve (AUC) from time zero to infinity (AUC0–∞) were estimated. AUC was computed using the trapezoidal rule (linear up and log down), and the AUC0–∞ was considered only when the extrapolated AUC was not more than 20% of the original value. A minimum of three sample points in the terminal slope were used to calculate half-life.

[4] = 150 mg/kg, Group 9 quartet EMB 100/SQ109 25/LZD 130/PZA 150 mg/kg oral, read-out: AUC0-24 in Quartet
[5] = 150 mg/kg, Group 9 quartet EMB 100/SQ109 25/LZD 130/PZA 150 mg/kg oral, read-out: Cmax in Quartet
[6] = 150 mg/kg, Group 3 quartet BTZ043 37.5/SQ109 25/MXF 200/PZA 150 mg/kg oral, read-out: AUC0-24 in Quartet
[7] = 150 mg/kg, Group 3 quartet BTZ043 37.5/SQ109 25/MXF 200/PZA 150 mg/kg oral, read-out: Cmax in Quartet
[8] = 150 mg/kg, Group 7 quartet PA824 50/BDQ 25/MXF 400/PZA 150 mg/kg oral, read-out: AUC0-24 in Quartet
[9] = 150 mg/kg, Group 7 quartet PA824 50/BDQ 25/MXF 400/PZA 150 mg/kg oral, read-out: Cmax in Quartet
[10] = 200 mg/kg, Group 3 triplet BTZ043 37.5/SQ109 25/MXF 200 mg/kg oral, read-out: AUC0-24 in Triplet
[11] = 200 mg/kg, Group 3 triplet BTZ043 37.5/SQ109 25/MXF 200 mg/kg oral, read-out: Cmax in Triplet
[12] = 25 mg/kg, Group 6 triplet BTZ043 37.5/THI 800/SQ109 25 mg/kg oral, read-out: AUC0-24 in Triplet
[13] = 25 mg/kg, Group 6 triplet BTZ043 37.5/THI 800/SQ109 25 mg/kg oral, read-out: Cmax in Triplet
[14] = 150 mg/kg, Group 6 quartet BTZ043 37.5/THI 800/SQ109 25/PZA 150 mg/kg oral, read-out: AUC0-24 in Quartet
[15] = 150 mg/kg, Group 6 quartet BTZ043 37.5/THI 800/SQ109 25/PZA 150 mg/kg oral, read-out: Cmax in Quartet

## N[C@@H]1CON=C1O [D-Cycloserine]
[1]
  ΔLog10 CFU/ml at the MIC: 0.87 Log10 CFU/ml
[2]; Mycobacterium tuberculosis
  MIC: 30.6 µM (≈ 3.12 µg/mL)

## CC[C@H]1OC(=O)[C@H](C)[C@@H](O[C@H]2C[C@@](C)(OC)[C@@H](O)[C@H](C)O2)[C@H](C)[C@@H](O[C@@H]2O[C@H](C)C[C@H](N(C)C)[C@H]2O)[C@](C)(OC)C[C@@H](C)C(=O)[C@H](C)[C@@H](O)[C@]1(C)O [Clarithromycin]
[1]
  ΔLog10 CFU/ml at the MIC: 0.75 Log10 CFU/ml
[2]; Mycobacterium tuberculosis
  MIC: 9.63 µM (≈ 7.2 µg/mL)

## CC(=O)NC[C@H]1CN(c2ccc(N3CCOCC3)c(F)c2)C(=O)O1 [Linezolid]
[1]
  ΔLog10 CFU/ml at the MIC: 0.25 Log10 CFU/ml
[3]; 130 mg/kg, Group 9 triplet EMB 100/SQ109 25/LZD 130 mg/kg oral, read-out: AUC0-24 in Triplet
  AUC(0-t): 154 ± 8.8 µg·h/mL
[3]; 130 mg/kg, Group 9 triplet EMB 100/SQ109 25/LZD 130 mg/kg oral, read-out: Cmax in Triplet
  Cmax: 14100 ± 100 ng/mL
[3]; [4]
  AUC(0-t): 178 ± 12.2 µg·h/mL
[3]; [5]
  Cmax: 14900 ± 1200 ng/mL
[2]; Mycobacterium tuberculosis
  MIC: 2.31 µM (≈ 0.779 µg/mL)

## C[C@@H](O)[C@H]1C(=O)N2C(C(=O)O)=C(S[C@@H]3CN[C@H](C(=O)N(C)C)C3)[C@H](C)[C@H]12 [Meropenem]
[1]
  ΔLog10 CFU/ml at the MIC: 0.57 Log10 CFU/ml
[2]; Mycobacterium tuberculosis
  MIC: 8.15 µM (≈ 3.13 µg/mL)

## COc1c(N2C[C@@H]3CCCN[C@@H]3C2)c(F)cc2c(=O)c(C(=O)O)cn(C3CC3)c12 [Moxifloxacin]
[1]
  ΔLog10 CFU/ml at the MIC: 1.40 Log10 CFU/ml
[3]; [6]
  AUC(0-t): 13.3 ± 3.1 µg·h/mL
[3]; [7]
  Cmax: 3900 ± 600 ng/mL
[3]; [8]
  AUC(0-t): 76.3 ± 13.9 µg·h/mL
[3]; [9]
  Cmax: 5100 ± 700 ng/mL
[3]; [10]
  AUC(0-t): 12.1 ± 3.5 µg·h/mL
[3]; [11]
  Cmax: 2200 ± 900 ng/mL
[3]; 400 mg/kg, Group 7 triplet PA824 50/BDQ 25/MXF 400 mg/kg oral, read-out: AUC0-24 in Triplet
  AUC(0-t): 29.8 ± 6.6 µg·h/mL
[3]; 400 mg/kg, Group 7 triplet PA824 50/BDQ 25/MXF 400 mg/kg oral, read-out: Cmax in Triplet
  Cmax: 4600 ± 800 ng/mL
[2]; Mycobacterium tuberculosis
  MIC: 0.02 µM (≈ 0.00803 µg/mL)

## NC[C@H]1O[C@H](O[C@H]2[C@H](O)[C@@H](O[C@H]3O[C@H](CO)[C@@H](O)[C@H](N)[C@H]3O)[C@H](N)C[C@@H]2N)[C@H](O)[C@@H](O)[C@@H]1O [Kanamycin]
[1]
  ΔLog10 CFU/ml at the MIC: 0.44 Log10 CFU/ml
[2]
  MIC: 1.61 µM (≈ 0.78 µg/mL)

## C[C@H]1COC2(CCN(c3nc(=O)c4cc(C(F)(F)F)cc([N+](=O)[O-])c4s3)CC2)O1 [BTZ043]
[1]
  ΔLog10 CFU/ml at the MIC: 1.40 Log10 CFU/ml
[3]; [12]
  AUC(0-t): 15 ± 6.2 µg·h/mL
[3]; [13]
  Cmax: 2100 ± 400 ng/mL
[3]; [10]
  AUC(0-t): 11.1 ± 5 µg·h/mL
[3]; [11]
  Cmax: 2300 ± 900 ng/mL
[2]; Mycobacterium tuberculosis
  MIC: 0.0009 µM (≈ 0.000388 µg/mL)

## NC(=O)c1cnccn1 [Pyrazinamide]
[3]; 150 mg/kg, Group 1 quartet CFZ 20/BDQ 25/PA824 50/PZA 150 mg/kg oral, read-out: AUC0-24 in Quartet
  AUC(0-t): 115 ± 6.5 µg·h/mL
[3]; 150 mg/kg, Group 1 quartet CFZ 20/BDQ 25/PA824 50/PZA 150 mg/kg oral, read-out: Cmax in Quartet
  Cmax: 64000 ± 9800 ng/mL
[3]; 150 mg/kg, Group 2 quartet SQ109 25/BDQ 25/PA824 50/PZA 150 mg/kg oral, read-out: AUC0-24 in Quartet
  AUC(0-t): 148 ± 2.1 µg·h/mL
[3]; 150 mg/kg, Group 2 quartet SQ109 25/BDQ 25/PA824 50/PZA 150 mg/kg oral, read-out: Cmax in Quartet
  Cmax: 64500 ± 3100 ng/mL
[3]; [6]
  AUC(0-t): 156 ± 13.2 µg·h/mL
[3]; [7]
  Cmax: 42000 ± 700 ng/mL
[3]; 150 mg/kg, Group 5 quartet EMB 100/BDQ 25/SQ109 25/PZA 150 mg/kg oral, read-out: AUC0-24 in Quartet
  AUC(0-t): 144 ± 29.5 µg·h/mL
[3]; 150 mg/kg, Group 5 quartet EMB 100/BDQ 25/SQ109 25/PZA 150 mg/kg oral, read-out: Cmax in Quartet
  Cmax: 67200 ± 2500 ng/mL
[3]; [14]
  AUC(0-t): 154 ± 23.8 µg·h/mL
[3]; [15]
  Cmax: 40200 ± 13300 ng/mL
[3]; [8]
  AUC(0-t): 144 ± 16.9 µg·h/mL
[3]; [9]
  Cmax: 33200 ± 2300 ng/mL
[3]; 150 mg/kg, Group 8 quartet PA824 50/BDQ 25/EMB 100/PZA 150 mg/kg oral, read-out: AUC0-24 in Quartet
  AUC(0-t): 127 ± 9 µg·h/mL
[3]; 150 mg/kg, Group 8 quartet PA824 50/BDQ 25/EMB 100/PZA 150 mg/kg oral, read-out: Cmax in Quartet
  Cmax: 69000 ± 12700 ng/mL
[3]; [4]
  AUC(0-t): 119 ± 7 µg·h/mL
[3]; [5]
  Cmax: 39500 ± 4400 ng/mL
[3]; 150 mg/kg, Ref. regimen quartet INH 30/RIF 10/EMB 100/PZA 150 mg/kg oral, read-out: AUC0-24 in Quartet
  AUC(0-t): 161 ± 18.8 µg·h/mL
[3]; 150 mg/kg, Ref. regimen quartet INH 30/RIF 10/EMB 100/PZA 150 mg/kg oral, read-out: Cmax in Quartet
  Cmax: 69700 ± 9700 ng/mL

## [H]/N=C(/N)N[C@H]1[C@H](O)[C@@H](O)[C@H](O[C@@H]2O[C@@H](C)[C@](O)(C=O)[C@H]2O[C@@H]2O[C@@H](CO)[C@H](O)[C@@H](O)[C@@H]2NC)[C@@H](N/C(N)=N\[H])[C@@H]1O [Streptomycin]
[1]
  ΔLog10 CFU/ml at the MIC: 0.36 Log10 CFU/ml
[2]; Mycobacterium tuberculosis
  MIC: 0.68 µM (≈ 0.395 µg/mL)

## CC(=O)Nc1ccc(/C=N/NC(N)=S)cc1 [Thiacetazone]
[1]
  ΔLog10 CFU/ml at the MIC: 0.76 Log10 CFU/ml
[3]; [12]
  AUC(0-t): 87 ± 52.1 µg·h/mL
[3]; [13]
  Cmax: 8500 ± 2800 ng/mL
[3]; [14]
  AUC(0-t): 68 ± 16 µg·h/mL
[3]; [15]
  Cmax: 5100 ± 400 ng/mL
[2]; Mycobacterium tuberculosis
  MIC: 8.47 µM (≈ 2 µg/mL)

## NCC[C@H](O)C(=O)N[C@@H]1C[C@H](N)[C@@H](O[C@H]2O[C@H](CN)[C@@H](O)[C@H](O)[C@H]2O)[C@H](O)[C@H]1O[C@H]1O[C@H](CO)[C@@H](O)[C@H](N)[C@H]1O [Amikacin]
[1]
  ΔLog10 CFU/ml at the MIC: −0.20 Log10 CFU/ml
[2]; Mycobacterium tuberculosis
  MIC: 0.43 µM (≈ 0.252 µg/mL)

## Capreomycin
[1]
  ΔLog10 CFU/ml at the MIC: −0.11 Log10 CFU/ml
[2]
  MIC: 5.91 µM
